Molecular target: tau (Homo sapiens, UniProt P10636)
Assay: MCE Phenols Library screening, tau biosensor cell seeding assay (AvZ)
Format: cell-based
Settings: for Z repl 1 / Z Repl 2: Z score; for Z repl 1 / raw data 1: replicate 1; for Z Repl 2 / raw data 2: replicate 2
[1] = average Z score of the two replicates, MCE Phenols Library screen
[2] = average puncta of the two replicates
[3] = average Z score of the two replicates, tau biosensor seeding, MCE Phenols Library screen
[4] = average Z score of the two replicates, tau seeding
[5] = average Z score of two replicates, Phenols Library screen

Chain of tau (P10636 623-695 limits assumed): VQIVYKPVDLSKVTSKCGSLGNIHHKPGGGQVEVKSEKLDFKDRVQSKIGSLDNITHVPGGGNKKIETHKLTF

Z repl 1	Z Repl 2	av puncta (average of raw data 1 and 2)	raw data 1 (puncta)	raw data 2 (puncta)	AvZ (average z score of seeding, SDs from the mean level of seeding) (10 μM phenol in cell cultures, AD brain homogenate preincubated 16 hours, two biological replicates, positive = catalyzes seeding, negative = inhibits)	av Z [4]	av Z [5]	Compound	av Z [1]	av puncta [2]	raw data 1 (raw puncta)	raw data 2 (raw puncta)	av Z [3]
	-1.187	257.55	427.718	87.382				O=C(O[C@@H]1Cc2c(O)cc(O)cc2O[C@H]1c1cc(O)c(O)c(O)c1)c1cc(O)c(O)c(O)c1 [(-)-Gallocatechin gallate]					
0.975	0.791	29633.2	38055.6	21210.9				Oc1ccc2c(c1)OC[C@H]1c3cc4c(cc3O[C@@H]21)OCO4 [(-?)?-Maackiain]					0.883
0.336	-0.209	20459.1	30381.4	10536.7	0.064			COC(=O)/C=C/c1ccc(O)cc1 [(E)-Methyl 4-coumarate]					
0.881	0.516	27599.4	36919.9	18278.8		0.698		CC(C)=CC[C@H](OC(=O)C=C(C)C)C1=CC(=O)c2c(O)ccc(O)c2C1=O [?,?-Dimethylacrylalkannin]					
1.599	0.945	34202.6	45542.6	22862.6				OC[C@H]1O[C@@H](Oc2ccc(O)cc2)[C@H](O)[C@@H](O)[C@@H]1O [?-Arbutin]					1.272
-0.027	-0.222	18211.5	26028.3	10394.7			-0.124	COc1ccc(-c2cc(=O)c3c(O)cc(O)cc3o2)cc1 [Acacetin]					
-0.301	0.292	19312.6	22737.6	15887.6			-0.004	O=C(OCC1=C[C@@H](O)[C@@H]2C=CO[C@@H](O[C@@H]3O[C@H](CO)[C@@H](O)[C@H](O)[C@H]3O)[C@H]12)c1ccc(O)cc1 [Agnuside]					
0.545	-0.475	20292.7	32890.3	7695.05			0.035	CC(C)=CCc1c2ccoc2c(O)c2oc(=O)ccc12 [Alloimperatorin]					
-0.712	-0.064							O=C1c2cc(CO)cc(O)c2C(=O)c2c(O[C@@H]3O[C@H](CO)[C@@H](O)[C@H](O)[C@H]3O)cccc21 [Aloe-emodin-8-O-?-D-glucopyranoside]	-0.388	14937.3	17796.3	12078.3	
-0.796	-0.937	9774.18	16789.2	2759.19				COc1cc(C)c2c(=O)cc(C[C@@H](C)O)oc2c1[C@@H]1O[C@H](CO)[C@@H](O)[C@H](O)[C@H]1OC(=O)/C=C/c1ccc(O)cc1 [Aloeresin D]	-0.867				
0.457	-0.177	21354.9	31839.2	10870.5		0.14		CC(=O)Cc1cc(=O)c2c(C)cc(O)c([C@@H]3O[C@H](CO)[C@@H](O)[C@H](O)[C@H]3O)c2o1 [Aloesin]					
0.434	-0.315	20479	31560.5	9397.5			0.059	O=C1c2c(O)cccc2[C@@H]([C@@H]2O[C@H](CO)[C@@H](O)[C@H](O)[C@H]2O)c2cc(CO)cc(O)c21 [Aloin B]					

The next lines start with the molecule.

Compound	Z repl 1	Z Repl 2	av puncta (average of raw data 1 and 2)	raw data 1 (puncta)	raw data 2 (puncta)	AvZ (average z score of seeding, SDs from the mean level of seeding) (10 μM phenol in cell cultures, AD brain homogenate preincubated 16 hours, two biological replicates, positive = catalyzes seeding, negative = inhibits)	av Z [4]	av Z [5]	av Z [1]	av puncta [2]	raw data 1 (raw puncta)	raw data 2 (raw puncta)	av Z [3]
Oc1cc(O)c2c(c1)O[C@H](c1cc(O)c(O)c(O)c1)[C@H](O)C2 [(-)-Epigallocatechin]	-0.424	-0.047							-0.236	16761.1	21261.4	12260.9	
Oc1cc(O)c2c(c1)O[C@@H](c1cc(O)c(O)c(O)c1)[C@H](O)C2 [(-)-Gallocatechin]	-1.316	-0.749	7661.42	10555.6	4767.22				-1.032				
COc1cc(/C=C/C(=O)OCC2OC(OC3(CO)OC(CO)C(O)C3OC(=O)/C=C/c3cc(OC)c(O)c(OC)c3)C(O)C(O)C2O)cc(OC)c1O (stereo not shown) [(E)-3',6-Disinapoylsucrose]	0.224	-0.662							-0.219	17367.3	29041	5693.57	
COc1ccc2cc1Oc1ccc(cc1)C[C@H]1c3cc(c(OC)cc3CCN1C)Oc1c(O)c(OC)cc3c1[C@@H](C2)N(C)CC3 [(R)-Fangchinoline]	0.226	0.65	24385.2	29066.8	19703.5		0.438						
CC[C@@]1(O)C(=O)OCc2c1cc1n(c2=O)Cc2cc3cc(O)ccc3nc2-1 [(S)-10-Hydroxycamptothecin]	1.738	1.796	39581.6	47219.2	31944.1								1.767
CC(C)=CC[C@@H](OC(=O)CC(C)(C)O)C1=CC(=O)c2c(O)ccc(O)c2C1=O [?-Hydroxyisovalerylshikonin]	-0.737	-0.673		17504.1	5582.9				-0.705	11543.5			
Cc1cc(O)c(C)c2c1O[C@](C)(CCC[C@H](C)CCC[C@H](C)CCCC(C)C)CC2 [?-Tocopherol]	0.056	-0.786							-0.365	15701	27026	4376.13	
Cc1c(C)c2c(c(C)c1O)CC[C@@](C)(CCC[C@H](C)CCC[C@H](C)CCCC(C)C)O2 [?-Vitamin E]	-0.172	-0.481							-0.326	15958	24288.2	7627.82	
CC(=O)O[C@@H](CC=C(C)C)C1=CC(=O)c2c(O)ccc(O)c2C1=O [Acetylalkannin]	-0.759	-0.292		17242.7	9643.51				-0.525	13443.1			
CC(=O)O[C@H](CC=C(C)C)C1=CC(=O)c2c(O)ccc(O)c2C1=O [Acetylshikonin]	0.563	1.037	28473.3	33102.4	23844.2								0.8
CCCC(=O)c1c(O)c(Cc2c(O)c(Cc3c(O)c(C)c(OC)c(C(=O)CCC)c3O)c(O)c(C(=O)[C@@H](C)CC)c2O)c(O)c(C)c1OC [Agrimol B]	-1.539	-0.722	6464.64	7875.9	5053.37				-1.13				
O=C1c2ccccc2C(=O)c2c1ccc(O)c2O [Alizarin]	-0.67	-0.047							-0.359	15284.3	18305.8	12262.8	
